Reference: ChEMBL document CHEMBL4825738, “EGFR-targeted prodrug activation using bioorthogonal alkene-azide click-and-release chemistry” (Bioorg Med Chem, 2021)

Columns and labels:
[1] = tested on: B16-F10-luc2; assay: Cytotoxicity against mouse B16-F10-Luc2 cells measured after 72 hrs by resazurin assay; format: cell-based; conditions: B16-F10-luc2, 72 h
[2] = tested on: B16-F10-luc2; assay: Anti tumour activity in C57BL/6 mouse implanted with B16-F10-Luc2 murine cells assessed as median survival time at 5.9 mg/kg, iv administered for 6 hrs followed by antibody conjugate treatment; format: functional
[3] = tested on: B16-F10-luc2; assay: Cytotoxicity against mouse B16-F10-Luc2 cells expressing human EGFR measured after 72 hrs in presence of AB-TCO4 conjugates by resazurin assay; format: functional, cell-based; conditions: B16-F10-luc2, 72 h
[4] = tested on: B16-F10-luc2; assay: Cytotoxicity against mouse B16-F10-Luc2 cells expressing human EGFR measured after 72 hrs by resazurin assay; format: cell-based; conditions: B16-F10-luc2, 72 h
[5] = tested on: B16-F10-luc2; assay: Cytotoxicity against mouse B16-F10-Luc2 cells expressing human EGFR measured after 72 hrs in presence of AB-TCO2 conjugates by resazurin assay; format: functional, cell-based; conditions: B16-F10-luc2, 72 h
[6] = tested on: B16-F10-luc2; assay: Cytotoxicity against mouse B16-F10-Luc2 cells expressing human EGFR measured after 72 hrs in presence of AB-TCO3 conjugates by resazurin assay; format: functional, cell-based; conditions: B16-F10-luc2, 72 h
[7] = tested on: B16-F10-luc2; assay: Cytotoxicity against mouse B16-F10-Luc2 cells measured after 72 hrs in presence of AB-TCO2 conjugate by resazurin assay; format: functional, cell-based; conditions: B16-F10-luc2, 72 h
[8] = tested on: B16-F10-luc2; assay: Cytotoxicity against mouse B16-F10-Luc2 cells in the measured after 72 hrs in presence of AB-TCO3 conjugate by resazurin assay; format: functional, cell-based; conditions: B16-F10-luc2, 72 h
[9] = tested on: B16-F10-luc2; assay: Cytotoxicity against mouse B16-F10-Luc2 cells expressing EGFR measured after 72 hrs in presence of 3.3 uM cetuximab by resazurin assay; format: functional, cell-based; conditions: B16-F10-luc2, 72 h
[10] = tested on: B16-F10-luc2; assay: Anti tumour activity in C57BL/6 mouse implanted with B16-F10-Luc2 murine cells assessed as median survival time at 4.5 mg/kg, ip administered for 24 hrs followed by antibody conjugate treatment; format: functional
[11] = tested on: B16-F10-luc2; assay: Cytotoxicity against mouse B16-F10-Luc2 cells expressing EGFR measured after 72 hrs in absence of cetuximab by resazurin assay; format: functional, cell-based; conditions: B16-F10-luc2, 72 h

| SMILES | IC50 [1] | MST [2] | IC50 [3] | IC50 [4] | IC50 [5] | IC50 [6] | IC50 [7] | IC50 [8] | IC50 [9] | MST [10] | IC50 [11] |
| --- | --- | --- | --- | --- | --- | --- | --- | --- | --- | --- | --- |
| COc1cccc2c1C(=O)c1c(O)c3c(c(O)c1C2=O)C[C@@](O)(C(=O)CO)C[C@@H]3O[C@H]1C[C@H](NC(=O)OCc2ccc(N=[N+]=[N-])cc2)[C@H](O)[C@H](C)O1 | 4490 nM | 26 days | 2090 nM | 1680 nM | 780 nM | 120 nM | 5140 nM | 3440 nM |  |  |  |
| COc1cccc2c1C(=O)c1c(O)c3c(c(O)c1C2=O)C[C@@](O)(C(=O)CO)C[C@@H]3O[C@H]1C[C@H](N)[C@H](O)[C@H](C)O1 [DOXORUBICIN] | 110 nM |  |  | 40 nM |  |  |  |  | 90 nM | 39 days | 40 nM |
